The source made the active and inactive calls.
Assays:
Vero = assay: cells; format: functional; conditions: Chlorocebus sabaeus
Galanin receptor type 3 = biological target: T1, Galanin receptor type 3 (Homo sapiens, UniProt O60755); assay: Fluorescence-based cell-based primary high throughput dose response assay to identify antagonists of the Galanin Receptor 3 (GalR3).; format: functional
T1 sequence (O60755 whole entry): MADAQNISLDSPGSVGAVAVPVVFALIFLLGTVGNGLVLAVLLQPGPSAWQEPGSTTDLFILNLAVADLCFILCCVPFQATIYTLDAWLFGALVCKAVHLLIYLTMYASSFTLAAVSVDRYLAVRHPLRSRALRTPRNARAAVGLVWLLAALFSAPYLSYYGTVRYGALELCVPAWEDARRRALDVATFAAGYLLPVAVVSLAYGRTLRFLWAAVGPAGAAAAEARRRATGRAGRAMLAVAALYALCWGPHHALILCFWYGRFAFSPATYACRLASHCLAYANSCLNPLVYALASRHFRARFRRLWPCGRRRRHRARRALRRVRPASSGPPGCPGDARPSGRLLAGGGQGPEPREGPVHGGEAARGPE

cells = format: functional, cell-based; conditions: HEK-CNG
[1] = biological target: SWI/SNF-related matrix-associated actin-dependent regulator of chromatin subfamily A member 2 (Homo sapiens, UniProt P51531); assay: Luminescence-based cell-based high throughput dose response assay to identify activators of the function of SWI/SNF related, matrix associated, actin dependent regulator of chromatin, subfamily a, member 2 (SMARCA2, BRM).; format: functional
[2] = Counterscreen for activators of the function of SWI/SNF related, matrix associated, actin dependent regulator of chromatin, subfamily a, member 2 (SMARCA2, BRM): Luminescence-based cell-based high throughput dose response assay to identify non-selective compounds using the VP16 reporter assay.; format: functional
[3] = off-target signal loss in HeLa-CEM21 co-culture – HeLa F-luc CTL cells, cherry-picked, counter-screen for HIV-1 Env fusion inhibitor project, dose response (AID 652040); format: functional, cell-based;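 further: potency for signal decrease marking cytotoxic or nonspecific inhibition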
[4] = blockers of HIV-1 ZM109 envelope-driven cell-cell fusion – HeLa effector, CEM target cells, luciferase, cherry-pick, dose response (AID 652058); format: functional, cell-based;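 further: luciferase signal from HIV-1 Env mediated cell-cell fusion of effector and target cells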
[5] = viability of PTEN-deleted HCT116 cells – cell-based, HCT116 PTEN knockout, dose response (AID 1047); format: functional;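 further: HCT116 colon tumor cells with PTEN knocked out; cells exposed to compound for 60 hours before readout; potency for loss of cell viability measured by luminescence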
[6] = viability of HCT116 lacking mutant beta-catenin – cell-based, human colon tumor, dose response (AID 1045); format: functional;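 further: HCT116 colon tumor cells with beta catenin knocked out; cells exposed to compound for 60 hours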
[7] = blockers of HIV-1 envelope-mediated cell-cell fusion – cherry-pick, dose response (AID 652057); format: functional, cell-based
[8] = HIV-1 AD8 envelope cell-cell fusion blockers – cherry-pick, dose response (AID 652062); format: functional, cell-based;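 further: luciferase signal from cell-cell fusion driven by HIV-1 clade B AD8 Env; potency is for inhibitors of fusion seen as a drop in luminescence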
[9] = fluconazole-exposed Candida albicans growth modulators – fluorescence, retest, confirmation (AID 2467); format: functional, cell-based
INS1 = assay: INS-1E survival protection against cytokine death – cell-based, luminescence, retest, dose response (AID 449756); format: functional; conditions: Rattus norvegicus;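 further: cell death triggered by IL-1 beta plus TNF-alpha plus IFN-gamma mixture; protective hits raise ATP signal compared with cytokine alone wells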
[10] = viability loss in CEM21 cells – cell-based, CellTiter-Glo luminescence, cherry-picked, cytotoxicity control for viral fusion inhibitor project, dose response (AID 652042); format: functional;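 further: potency for signal decrease meaning cytotoxicity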
[11] = NIH-3T3 fibroblast cytotoxicity, dose response, cytotoxicity control, cell-based, fluorescence, Alamar Blue, secondary assay (AID 2327); format: functional;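 further: NIH-3T3 mouse fibroblasts cultured with fluconazole at 8 µg/mL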
[12] = biological target: Photoreceptor-specific nuclear receptor (Homo sapiens, UniProt Q9Y5X4); format: functional, cell-based;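 further: CHO-S cells with Gal4-NCOR and VP16-NR2E3 two-hybrid luciferase reporter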
[13] = inhibition of ARNT PAS-B/TACC3 complex formation – biochemical, AlphaScreen, cherry-picked samples, confirmation (AID 651703); format: functional, Homo sapiens;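 further: His-tagged ARNT PAS-B domain paired with GST-TACC3 E629A dimer coactivator fragment; potency of inhibitors that break up the complex and lower AlphaScreen signal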
[14] = biological target: T2, Sentrin-specific protease 8 (Homo sapiens, UniProt Q96LD8); assay: inhibition of human SENP8 cleavage activity – biochemical, luminescence, SAR follow-up (AID 504501); format: functional
T2 sequence (Q96LD8 whole entry): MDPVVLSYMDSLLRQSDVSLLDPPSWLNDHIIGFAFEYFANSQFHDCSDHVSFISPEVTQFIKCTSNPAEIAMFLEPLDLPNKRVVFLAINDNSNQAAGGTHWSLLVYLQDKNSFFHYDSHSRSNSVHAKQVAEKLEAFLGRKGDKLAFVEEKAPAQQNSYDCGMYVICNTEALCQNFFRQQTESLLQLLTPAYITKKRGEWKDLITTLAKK

Caspase-3 = biological target: T3, Caspase-3 (Homo sapiens, UniProt P42574); assay: SAR Analysis of small molecule inhibitors of Sentrin-specific proteases (SENPs) using a Caspase-3 Selectivity assay. [Related pubchem assays (depositor defined):AID2540, AID2599, AID434973, AID489001]; format: functional
T3 sequence (P42574 whole entry): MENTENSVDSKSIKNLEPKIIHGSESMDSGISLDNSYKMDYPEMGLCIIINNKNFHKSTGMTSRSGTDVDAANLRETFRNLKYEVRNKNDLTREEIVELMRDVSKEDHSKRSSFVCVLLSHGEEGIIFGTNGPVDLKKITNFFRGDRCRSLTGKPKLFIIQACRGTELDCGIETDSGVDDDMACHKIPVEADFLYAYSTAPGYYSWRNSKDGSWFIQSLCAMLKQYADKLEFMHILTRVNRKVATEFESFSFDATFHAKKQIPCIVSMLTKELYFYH

[15] = biological target: T4, Sentrin-specific protease 6 (Homo sapiens, UniProt Q9GZR1); assay: SAR Analysis of small molecule inhibitors of Sentrin-specific protease 6 (SENP6) using a Luminescent assay. [Related pubchem assays (depositor defined):AID2582, AID2599]; format: functional
T4 sequence (Q9GZR1 whole entry): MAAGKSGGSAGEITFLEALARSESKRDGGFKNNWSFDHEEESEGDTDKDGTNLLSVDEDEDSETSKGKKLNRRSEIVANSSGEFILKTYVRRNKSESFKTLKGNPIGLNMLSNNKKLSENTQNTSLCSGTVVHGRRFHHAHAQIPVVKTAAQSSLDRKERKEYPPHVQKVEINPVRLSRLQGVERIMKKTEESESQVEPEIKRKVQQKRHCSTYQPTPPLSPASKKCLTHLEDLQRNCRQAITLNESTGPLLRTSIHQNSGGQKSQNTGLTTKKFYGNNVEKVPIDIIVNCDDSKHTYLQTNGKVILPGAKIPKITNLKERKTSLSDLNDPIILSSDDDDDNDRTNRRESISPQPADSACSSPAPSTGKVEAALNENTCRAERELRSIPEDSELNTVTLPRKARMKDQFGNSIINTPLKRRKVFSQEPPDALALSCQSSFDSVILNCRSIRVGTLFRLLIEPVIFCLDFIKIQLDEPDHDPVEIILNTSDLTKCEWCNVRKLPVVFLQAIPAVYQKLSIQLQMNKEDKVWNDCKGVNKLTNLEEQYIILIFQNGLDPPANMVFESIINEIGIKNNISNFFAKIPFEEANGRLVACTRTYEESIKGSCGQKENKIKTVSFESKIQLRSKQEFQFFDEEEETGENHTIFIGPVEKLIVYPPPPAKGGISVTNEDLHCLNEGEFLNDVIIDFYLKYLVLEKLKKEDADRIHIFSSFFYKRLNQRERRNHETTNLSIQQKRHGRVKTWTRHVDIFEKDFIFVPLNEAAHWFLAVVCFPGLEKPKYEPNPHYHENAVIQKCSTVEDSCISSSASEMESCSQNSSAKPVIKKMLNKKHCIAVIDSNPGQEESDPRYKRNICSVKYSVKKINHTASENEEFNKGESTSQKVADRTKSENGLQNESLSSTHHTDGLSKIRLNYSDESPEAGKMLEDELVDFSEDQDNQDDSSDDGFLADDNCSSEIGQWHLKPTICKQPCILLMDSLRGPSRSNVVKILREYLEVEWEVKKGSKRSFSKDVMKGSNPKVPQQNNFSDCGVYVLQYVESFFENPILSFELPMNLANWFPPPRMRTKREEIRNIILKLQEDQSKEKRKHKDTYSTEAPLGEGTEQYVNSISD

[16] = biological target: T5, Sentrin-specific protease 7 (Homo sapiens, UniProt Q9BQF6); assay: inhibition of human SENP7 cleavage activity – biochemical, luminescence, SAR follow-up (AID 504497); format: functional
T5 sequence (Q9BQF6 whole entry): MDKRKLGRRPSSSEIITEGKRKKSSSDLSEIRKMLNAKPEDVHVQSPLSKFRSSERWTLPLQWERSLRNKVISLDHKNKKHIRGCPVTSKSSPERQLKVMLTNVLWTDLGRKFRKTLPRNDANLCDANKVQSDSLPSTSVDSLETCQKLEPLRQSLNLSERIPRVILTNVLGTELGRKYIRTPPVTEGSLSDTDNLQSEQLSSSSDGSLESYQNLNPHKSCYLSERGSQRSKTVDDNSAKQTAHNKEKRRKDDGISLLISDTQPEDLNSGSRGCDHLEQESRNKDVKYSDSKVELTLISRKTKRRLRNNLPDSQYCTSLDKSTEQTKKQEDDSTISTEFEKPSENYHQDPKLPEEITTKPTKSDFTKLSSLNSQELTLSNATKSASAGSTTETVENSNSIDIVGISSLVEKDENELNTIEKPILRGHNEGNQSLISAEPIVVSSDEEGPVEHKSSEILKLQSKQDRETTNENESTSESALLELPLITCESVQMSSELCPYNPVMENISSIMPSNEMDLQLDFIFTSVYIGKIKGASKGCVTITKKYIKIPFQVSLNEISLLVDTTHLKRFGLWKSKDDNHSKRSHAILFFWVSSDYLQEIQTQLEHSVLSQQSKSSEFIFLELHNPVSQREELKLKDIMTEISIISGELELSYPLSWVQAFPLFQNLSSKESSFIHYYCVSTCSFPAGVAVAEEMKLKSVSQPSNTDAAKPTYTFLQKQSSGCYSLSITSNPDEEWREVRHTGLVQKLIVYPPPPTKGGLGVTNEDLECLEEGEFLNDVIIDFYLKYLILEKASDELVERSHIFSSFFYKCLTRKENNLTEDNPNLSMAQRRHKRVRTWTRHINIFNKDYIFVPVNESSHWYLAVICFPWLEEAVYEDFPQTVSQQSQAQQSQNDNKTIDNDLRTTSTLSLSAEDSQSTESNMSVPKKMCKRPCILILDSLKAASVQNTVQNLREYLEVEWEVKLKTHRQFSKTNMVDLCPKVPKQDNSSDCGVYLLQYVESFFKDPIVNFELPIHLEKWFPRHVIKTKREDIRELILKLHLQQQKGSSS

P388/ADR = assay: cells; format: functional; conditions: Mus musculus
P388 = assay: cells; format: functional; conditions: Mus musculus
SN12K1 = assay: cells; format: functional; conditions: Homo sapiens

Sequence of Photoreceptor-specific nuclear receptor (Q9Y5X4 whole entry, the tested form may be a part): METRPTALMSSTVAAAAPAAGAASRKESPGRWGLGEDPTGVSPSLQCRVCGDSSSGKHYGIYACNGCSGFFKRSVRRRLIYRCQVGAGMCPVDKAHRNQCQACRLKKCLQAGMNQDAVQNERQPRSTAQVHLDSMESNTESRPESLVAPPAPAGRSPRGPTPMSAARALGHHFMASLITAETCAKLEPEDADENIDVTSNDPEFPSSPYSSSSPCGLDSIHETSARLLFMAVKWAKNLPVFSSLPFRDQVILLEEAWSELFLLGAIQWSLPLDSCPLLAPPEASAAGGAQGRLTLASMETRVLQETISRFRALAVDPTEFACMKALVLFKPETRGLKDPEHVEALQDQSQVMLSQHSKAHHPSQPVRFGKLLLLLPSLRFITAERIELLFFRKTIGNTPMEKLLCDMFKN
Sequence of SWI/SNF-related matrix-associated actin-dependent regulator of chromatin subfamily A member 2 (P51531 whole entry): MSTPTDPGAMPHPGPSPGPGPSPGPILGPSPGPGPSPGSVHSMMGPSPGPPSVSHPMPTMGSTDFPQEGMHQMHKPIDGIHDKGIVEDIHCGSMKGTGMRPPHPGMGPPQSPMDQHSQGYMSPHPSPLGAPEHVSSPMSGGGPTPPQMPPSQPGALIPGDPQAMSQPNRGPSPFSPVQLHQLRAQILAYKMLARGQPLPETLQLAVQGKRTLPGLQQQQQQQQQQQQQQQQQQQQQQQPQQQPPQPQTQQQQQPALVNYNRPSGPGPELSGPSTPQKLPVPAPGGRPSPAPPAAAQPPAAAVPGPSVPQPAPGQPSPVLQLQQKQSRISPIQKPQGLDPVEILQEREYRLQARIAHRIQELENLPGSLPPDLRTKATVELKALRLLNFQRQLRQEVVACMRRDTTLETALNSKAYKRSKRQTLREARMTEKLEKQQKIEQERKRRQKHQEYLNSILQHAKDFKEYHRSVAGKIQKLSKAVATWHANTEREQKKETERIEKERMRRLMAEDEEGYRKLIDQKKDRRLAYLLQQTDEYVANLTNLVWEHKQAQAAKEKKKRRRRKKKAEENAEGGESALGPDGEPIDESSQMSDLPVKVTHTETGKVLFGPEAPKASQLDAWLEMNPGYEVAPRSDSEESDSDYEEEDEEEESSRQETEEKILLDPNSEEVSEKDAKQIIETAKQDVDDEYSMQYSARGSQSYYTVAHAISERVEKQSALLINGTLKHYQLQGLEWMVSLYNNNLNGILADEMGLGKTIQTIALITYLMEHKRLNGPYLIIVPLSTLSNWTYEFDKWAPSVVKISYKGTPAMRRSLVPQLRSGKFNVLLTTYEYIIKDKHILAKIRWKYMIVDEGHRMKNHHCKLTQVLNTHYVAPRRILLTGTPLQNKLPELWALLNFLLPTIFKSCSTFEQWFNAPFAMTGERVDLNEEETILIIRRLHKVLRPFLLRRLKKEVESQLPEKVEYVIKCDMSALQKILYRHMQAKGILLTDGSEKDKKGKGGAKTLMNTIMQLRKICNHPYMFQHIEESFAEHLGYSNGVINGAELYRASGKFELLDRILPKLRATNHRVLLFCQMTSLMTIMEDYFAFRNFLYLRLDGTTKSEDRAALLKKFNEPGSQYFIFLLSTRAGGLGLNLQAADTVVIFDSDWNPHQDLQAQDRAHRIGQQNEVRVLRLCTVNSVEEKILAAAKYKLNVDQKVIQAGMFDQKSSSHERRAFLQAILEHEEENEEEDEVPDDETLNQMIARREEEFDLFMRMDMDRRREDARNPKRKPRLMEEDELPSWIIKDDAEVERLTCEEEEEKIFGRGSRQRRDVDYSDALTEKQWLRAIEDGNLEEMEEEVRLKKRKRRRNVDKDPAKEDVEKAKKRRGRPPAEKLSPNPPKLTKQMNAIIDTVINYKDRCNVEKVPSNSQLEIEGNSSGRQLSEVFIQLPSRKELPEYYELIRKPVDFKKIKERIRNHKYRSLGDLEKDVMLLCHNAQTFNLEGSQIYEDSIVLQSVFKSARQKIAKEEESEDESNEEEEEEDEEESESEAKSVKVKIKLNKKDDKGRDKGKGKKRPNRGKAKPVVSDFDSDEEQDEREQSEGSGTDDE

## CN(C)CC1CCC/C(=C\c2ccc(OC(=O)/C=C/c3ccccc3)cc2)C1=O (configuration not stated)
Vero
  CC50: > 25 µM (active)

## Cc1n[nH]c(NCCO)c1[N+](=O)[O-]
Galanin receptor type 3
  IC50: > 29.9 µM (inactive)
cells
  EC50: > 29.9 µM (inactive)

## O=C(c1noc2c1CCc1ccccc1-2)N1CCOCC1
[1]
  EC50: > 91.2 µM (inactive)
[2]
  EC50: > 91.2 µM (inactive)

## COc1cccc(CNCCc2c[nH]c3ccccc23)c1OCc1ccccc1F
[3]
  AC50: 23.2 µM (active)
[4]
  AC50: 25.6 µM (active)
[5]
  EC50: 5.56 µM (active)
[6]
  EC50: 4.65 µM (active)
[7]
  AC50: 3.52 µM (active)
[8]
  AC50: 7.5 µM (active)
[9]
  EC50: 1.5 µM (active)
INS1
  AC50: 8.08 µM (active)
[10]
  AC50: 9.93 µM (active)
[11]
  EC50: > 150 µM (inconclusive)

## Nc1ccc(O)cc1C(=O)OCC(=O)c1ccc(C2CCCCC2)cc1
[3]
  AC50: 40.9 µM (active)
[4]
  AC50: 0.865 µM (active)
[8]
  AC50: 2.09 µM (active)
[10]
  AC50: 2.3 µM (active)

## O=C(Nc1ccc(Cn2cccn2)cc1)c1ccc(COc2ccccc2Br)cc1
[12]
  IC50: 4.43 µM (active)

## CC1=Nn2c(nnc2-c2ccccn2)SC1
[13]
  AC50: 84.7 µM (active)

## COc1ccc(OC)c(-c2cc(C(=O)N3CCN(c4ncccn4)CC3)c3ccccc3n2)c1
[13]
  AC50: 127 µM (active)

## Cc1onc(-c2ccccc2Cl)c1C(=O)Nc1nc2c(s1)CCCC2
[12]
  IC50: 1.25 µM (active)

## COc1ccc(/C=N/Nc2nc(NCc3ccccc3)nc(N(C)C)n2)cc1Br
[14]
  IC50: > 99 µM (inactive)
Caspase-3
  IC50: > 99 µM (inactive)
[15]
  IC50: > 99 µM (inactive)
[16]
  IC50: > 99 µM (inactive)

## C(/C=C/c1ccccc1)=N/Nc1cc(N2CCCC2)nc(N2CCCC2)n1
[14]
  IC50: 43.5 µM (active)
Caspase-3
  IC50: > 99 µM (inactive)
[15]
  IC50: 11 µM (active)
[16]
  IC50: 32.9 µM (active)

## CCOc1ccc(C(=O)Nc2ccc3ccccc3c2)cc1Br
[14]
  IC50: > 99 µM (inactive)
Caspase-3
  IC50: > 99 µM (inactive)
[15]
  IC50: > 99 µM (inactive)
[16]
  IC50: > 99 µM (inactive)

## CN(C)CCSc1nccc(-c2ccc(-c3ccnc(SCCN(C)C)n3)s2)n1
P388/ADR
  GI50: 2.35 µM (inactive)
P388
  GI50: 1.04 µM (active)
SN12K1
  GI50: 11.1 µM (inactive)

## COc1nc(N)nc2nc[nH]c12
P388/ADR
  GI50: 265 µM (inactive)
P388
  GI50: 339 µM (inactive)
SN12K1
  GI50: 383 µM (inactive)

## COc1cc2c(cc1OC)C(OC)N(C)c1c-2ccc2cc3c(cc12)OCO3 (configuration not stated)
P388/ADR
  GI50: 2.58 µM (inactive)
P388
  GI50: 0.667 µM (active)
SN12K1
  GI50: 0.652 µM (active)

## NC1(C(=O)O)CCc2ccc(N(CCCl)CCCl)cc2C1 (configuration not stated)
P388/ADR
  GI50: 10.9 µM (inactive)
P388
  GI50: 1.67 µM (inactive)
SN12K1
  GI50: 64.1 µM (inactive)

Reference: ChEMBL document CHEMBL1201862, “PubChem BioAssay data set” (2004)
